In US12433902B2, “Liposomal formulations for inhibiting SARS-CoV-2 replication and reducing lung inflammation” (priority 2021, dated 2025):
Counter-ions that a name gives are not always drawn.

Assays:
SARS-CoV-2 = conditions: cited from earlier work
[1] = Toxicity observation at the 20 μg dose of BUD; format: in vivo, C57BL/6 mice; conditions: 20 μg dose of BUD
[2] = cited from earlier work

## CN(C)C(=O)COC(=O)Cc1ccc(OC(=O)c2ccc(NC(=N)N)cc2)cc1 [camostat mesylate]
SARS-CoV-2; high doses (e.g., 100 μg/mL)
  SARS-CoV-2 growth: reduce SARS-CoV-2 growth partially

## CCCC1O[C@@H]2C[C@H]3[C@@H]4CCC5=CC(=O)C=C[C@]5(C)[C@H]4[C@@H](O)C[C@]3(C)[C@]2(C(=O)CO)O1 (some centres unmarked) [budesonide]
[1]
  toxicity to the spleen, liver, bone marrow, skin or the gastrointestinal tract: without evidence of toxicity
[2]; BUD alone in the lungs
  half-life: about 36 hours
[2]; BUD alone
  effective life in the lungs: slightly more than one day

## human recombinant soluble ACE2: human recombinant soluble ACE2
SARS-CoV-2
  viral growth in vitro: reduces viral growth in vitro
